The supplement of paper PMC11061612

Tests used:
Test in all cases: Bliss excess, mean over the matrix (fraction); higher = more synergy
A375 (Melanoma) = test system: A375 (Melanoma)
Outline: (§1)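 After 24 hours at 37°C and 5% CO2 in 1536-well plates, cells in DMEM/F12 or RPMI plus 10% FBS received two-drug dose matrices for 72 hours. Viability came from CellTiter-Glo 2.0 luminescence and was scaled as inhibition, anchored at 0 by vehicle wells and at 1 by blank wells. Combination Emax is taken as the second-highest inhibition in the matrix, and Bliss excess as the observed combination effect less EA + EB − EA·EB, with EA and EB the single-agent effects.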

C32 (Melanoma) = test system: C32 (Melanoma)
Outline: as §1

[1] = test system: CAL-85-1 (Breast Carcinoma)
Outline: as §1

GCIY (Gastric Carcinoma) = test system: GCIY (Gastric Carcinoma)
Outline: as §1

[2] = test system: KNS-62 (Squamous Cell Lung Carcinoma)
Outline: as §1

[3] = test system: L-363 (Plasma Cell Myeloma)
Outline: as §1

[4] = test system: NCI-H1435 (Non-Small Cell Lung Carcinoma)
Outline: as §1

[5] = test system: NCI-H2009 (Lung Adenocarcinoma)
Outline: as §1

[6] = test system: NTERA-2-cl-D1 (Other Solid Carcinomas)
Outline: as §1

[7] = test system: ATN-1 (T-Lymphoblastic Leukemia)
Outline: as §1

[8] = test system: BT-474 (Breast Carcinoma)
Outline: as §1

[9] = test system: GRANTA-519 (B-Cell Non-Hodgkin's Lymphoma)
Outline: as §1

[10] = test system: HT-1197 (Bladder Carcinoma)
Outline: as §1

HT-144 (Melanoma) = test system: HT-144 (Melanoma)
Outline: as §1

[11] = test system: JJN-3 (Plasma Cell Myeloma)
Outline: as §1

[12] = test system: NCI-H1048 (Small Cell Lung Carcinoma)
Outline: as §1

[13] = test system: NCI-H1975 (Lung Adenocarcinoma)
Outline: as §1

[14] = test system: OCI-M1 (Acute Myeloid Leukemia)
Outline: as §1

SK-N-DZ (Neuroblastoma) = test system: SK-N-DZ (Neuroblastoma)
Outline: as §1

[15] = test system: TK (B-Cell Non-Hodgkin's Lymphoma)
Outline: as §1

CN(CCO)CC[C@H](CSc1ccccc1)Nc1ccc(S(=O)(=O)NC(=O)c2ccc(N3CCC([C@@H](O)c4ccccc4-c4ccc(Cl)cc4)CC3)cc2)cc1S(=O)(=O)C(F)(F)F [AZD4320] + Nc1ccn([C@@H]2O[C@H](CO)[C@@H](O)C2(F)F)c(=O)n1 [Gemcitabine] (first compound max 1 µM, 7x7, partner max 0.3 µM)
Bliss excess (A375 (Melanoma)): 0.0047
Bliss excess (C32 (Melanoma)): 0.0027
Bliss excess [1]: -0.0055
Bliss excess (GCIY (Gastric Carcinoma)): -0.0151
Bliss excess [2]: -0.0024
Bliss excess [3]: 0.0563
Bliss excess [4]: -0.0344
Bliss excess [5]: -0.013
Bliss excess [6]: -0.0239

Cc1cc2ncnn2cc1Nc1ncc2c(n1)n(C1CCOCC1)c(=O)n2C [AZD7648] + C=CCn1c(=O)c2cnc(Nc3ccc(N4CCN(C)CC4)cc3)nc2n1-c1cccc(C(C)(C)O)n1 [AZD1775] (first compound max 10 µM, partner max 1 µM)
Bliss excess (A375 (Melanoma)): 0.0217
Bliss excess [7]: -0.0176
Bliss excess [8]: 0.0103
Bliss excess (C32 (Melanoma)): 0.0106
Bliss excess [1]: -0.0292
Bliss excess (GCIY (Gastric Carcinoma)): -0.028
Bliss excess [9]: -0.0126
Bliss excess [10]: -0.0553
Bliss excess (HT-144 (Melanoma)): 0.0458
Bliss excess [11]: -0.0726
Bliss excess [2]: 0.0584
Bliss excess [3]: 0.0185
Bliss excess [12]: -0.0505
Bliss excess [4]: 0.0816
Bliss excess [13]: -0.0107
Bliss excess [5]: -0.0271
Bliss excess [6]: -0.0791
Bliss excess [14]: -0.044
Bliss excess (SK-N-DZ (Neuroblastoma)): 0.0207
Bliss excess [15]: -0.0568

Cc1cc2ncnn2cc1Nc1ncc2c(n1)n(C1CCOCC1)c(=O)n2C [AZD7648] + CCN(CCO)CCCOc1ccc2c(Nc3cc(CC(=O)Nc4cccc(F)c4)[nH]n3)ncnc2c1 [AZD2811] (first compound max 10 µM, 7x7, partner max 1 µM)
Bliss excess (A375 (Melanoma)): 0.0251
Bliss excess [7]: -0.0768
Bliss excess [8]: -0.0214
Bliss excess (C32 (Melanoma)): 0.0271
Bliss excess [1]: -0.0195
Bliss excess (GCIY (Gastric Carcinoma)): 0.0949
Bliss excess [9]: 0.0287
Bliss excess [10]: -0.0131
Bliss excess (HT-144 (Melanoma)): 0.0088
Bliss excess [11]: 0.0202
Bliss excess [2]: 0.0489
Bliss excess [3]: 0.0321
Bliss excess [12]: -0.0197
Bliss excess [4]: 0.0409
Bliss excess [13]: 0.008
Bliss excess [5]: 0.0669
Bliss excess [6]: 0.012
Bliss excess [14]: 0.0449
Bliss excess (SK-N-DZ (Neuroblastoma)): 0.088
Bliss excess [15]: 0.0132

Cc1cc2ncnn2cc1Nc1ncc2c(n1)n(C1CCOCC1)c(=O)n2C [AZD7648] + CN(C)CCCOc1ccc(-c2ccc3ncc4c(c3c2)n(C2CCOCC2)c(=O)n4C)cn1 [AZD0156] (first compound max 10 µM, 7x7, partner max 1 µM)
Bliss excess (A375 (Melanoma)): 0.0165
Bliss excess [7]: 0.0185
Bliss excess [8]: 0.0241
Bliss excess (C32 (Melanoma)): 0.003
Bliss excess [1]: -0.0542
Bliss excess (GCIY (Gastric Carcinoma)): -0.0458
Bliss excess [9]: 0.0266
Bliss excess [10]: -0.0117
Bliss excess (HT-144 (Melanoma)): 0.0013
Bliss excess [11]: -0.0058
Bliss excess [2]: -0.0064
Bliss excess [3]: 0.0303
Bliss excess [12]: 0.0121
Bliss excess [4]: 0.0091
Bliss excess [13]: -0.0071
Bliss excess [5]: -0.0019
Bliss excess [6]: -0.0248
Bliss excess [14]: 0.0385
Bliss excess (SK-N-DZ (Neuroblastoma)): 0.038
Bliss excess [15]: -0.0264
